The source of these data is PubChem BioAssay AID256 (DTP/NCI, 2004).

The experiment has as its system CD2F1 mice, L1210 leukemia ip, survival T/C. Description: NCI In Vivo Anticancer Drug Screen. Data for tumor model L1210 Leukemia (intraperitoneal) in CD2F1 (CDF1) mice. As to conditions: higher = longer survival. The essentials: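 Transplantable tumor in mice; compound-treated vs vehicle-treated groups. Read-out = treated/control ratio of the measured endpoint.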

Where [1] appears, read: endpoint: mean survival time, dose: 6.25 mg/kg/injection, schedule: Q01DX009 (ip), vehicle: saline.
Setting [2] is: endpoint: mean survival time, dose: 12.5 mg/kg/injection, schedule: Q01DX009 (ip), vehicle: saline.
Where [3] appears, read: endpoint: mean survival time, dose: 25.0 mg/kg/injection, schedule: Q01DX009 (ip), vehicle: saline.
[4] abbreviates: endpoint: mean survival time, dose: 100.0 mg/kg/injection, schedule: Q04DX003 (ip), vehicle: saline with Tween-80.
Where [5] appears, read: endpoint: mean survival time, dose: 200.0 mg/kg/injection, schedule: Q04DX003 (ip), vehicle: saline with Tween-80.
The mark [6] stands for this setting: endpoint: mean survival time, dose: 100.0 mg/kg/injection, schedule: Q01DX009 (ip), vehicle: saline with Tween-80.
Where [7] appears, read: endpoint: mean survival time, dose: 200.0 mg/kg/injection, schedule: Q01DX009 (ip), vehicle: saline with Tween-80.
Setting [8] is: endpoint: mean survival time, dose: 400.0 mg/kg/injection, schedule: Q04DX003 (ip), vehicle: saline with Tween-80.
The mark [9] stands for this setting: endpoint: mean survival time, dose: 100.0 mg/kg/injection, schedule: Q04DX003 (ip), vehicle: Klucel (hydroxypropylcellulose) (HPC).
[10] abbreviates: endpoint: mean survival time, dose: 200.0 mg/kg/injection, schedule: Q04DX003 (ip), vehicle: Klucel (hydroxypropylcellulose) (HPC).
The mark [11] stands for this setting: endpoint: mean survival time, dose: 400.0 mg/kg/injection, schedule: Q04DX003 (ip), vehicle: Klucel (hydroxypropylcellulose) (HPC).

Several values for one entry are separate records, joined by “and”; a condition that tells them apart may be missing. Identical values can stand only once. Inconclusive results and toxic doses are left out.

For `C=CCCCCCCCCC(=O)NCC[N+](C)(C)C`, the T/C runs as follows: under setting [1], 104 % of control; (endpoint: mean survival time, dose: 6.25 mg/kg/injection, schedule: Q04DX003 (ip), vehicle: saline) 96 % of control; under setting [2], 101 % of control; (endpoint: mean survival time, dose: 12.5 mg/kg/injection, schedule: Q04DX003 (ip), vehicle: saline) 97 % of control; under setting [3], 106 % of control; (endpoint: mean survival time, dose: 25.0 mg/kg/injection, schedule: Q04DX003 (ip), vehicle: saline) 102 % of control.

With `C=C1CC(C)(Cn2cnc3c(N)ncnc32)OC1=O` (configuration not stated), the T/C is, setting by setting: (endpoint: median survival time, dose: 6.13 mg/kg/injection, schedule: Q01DX005 (ip), vehicle: water) 104 % of control; (endpoint: median survival time, dose: 12.25 mg/kg/injection, schedule: Q01DX005 (ip), vehicle: water) 101 % of control; (endpoint: median survival time, dose: 24.5 mg/kg/injection, schedule: Q01DX005 (ip), vehicle: water) 103 % of control; (endpoint: median survival time, dose: 49.0 mg/kg/injection, schedule: Q01DX005 (ip), vehicle: water) 101 % of control.

For the compound `Nc1nc2ncc(CNc3ccc(C(=O)NC(CCC(=O)O)C(=O)O)cn3)nc2c(=O)[nH]1` (configuration not stated), the T/C (endpoint: mean survival time, dose: 75.0 mg/kg/injection, schedule: Q01DX001 (ip), vehicle: other) was 102 % of control.

On to `O=C(O)c1cc(Br)c(Br)s1`, for which the T/C reads like this: under setting [4], 94 % of control; under setting [5], 94 % of control.

As to `C[Si](C)(C)Nc1ncnc2c1ncn2[Si](C)(C)C`, the T/C under setting [6] was 94 % of control; the T/C under setting [4] is 103 % of control; the T/C under setting [7] was 105 % of control; the T/C under setting [5] was 103 % of control; the T/C (endpoint: mean survival time, dose: 400.0 mg/kg/injection, schedule: Q01DX009 (ip), vehicle: saline with Tween-80) is 106 % of control; the T/C under setting [8] was 101 % of control.

On to `CC(=O)OC1C2(CC3N4C(=O)C5(CO)SSC4(CC31O)C(=O)N5C)OC(C)C(C)(C)C2=O` (configuration not stated), for which the T/C was 101 % of control (endpoint: mean survival time, dose: 0.15 mg/kg/injection, schedule: Q01DX009 (ip), vehicle: saline); 97 % of control (endpoint: mean survival time, dose: 0.16 mg/kg/injection, schedule: Q01DX009 (ip), vehicle: saline with Tween-80); 101 % of control (endpoint: mean survival time, dose: 0.31 mg/kg/injection, schedule: Q01DX009 (ip), vehicle: saline with Tween-80); 100 % of control (endpoint: mean survival time, dose: 0.31 mg/kg/injection, schedule: Q01DX009 (ip), vehicle: saline); 100 % of control (endpoint: mean survival time, dose: 0.62 mg/kg/injection, schedule: Q01DX009 (ip), vehicle: saline); 101 % of control (endpoint: mean survival time, dose: 0.63 mg/kg/injection, schedule: Q01DX009 (ip), vehicle: saline with Tween-80). The T/C (endpoint: mean survival time, dose: 1.25 mg/kg/injection, schedule: Q01DX009 (ip), vehicle: saline) was 120 % of control and 98 % of control and 100 % of control; the T/C (endpoint: mean survival time, dose: 2.5 mg/kg/injection, schedule: Q01DX009 (ip), vehicle: saline with Tween-80) was 98 % of control; the T/C (endpoint: mean survival time, dose: 2.5 mg/kg/injection, schedule: Q01DX009 (ip), vehicle: saline) is 107 % of control.

Consider `CCOC(=O)/C(C#N)=C/NC(N)=O`, for which the T/C was 100 % of control (endpoint: mean survival time, dose: 50.0 mg/kg/injection, schedule: Q01DX001 (ip), vehicle: Klucel (hydroxypropylcellulose) (HPC)); 91 % of control and 92 % of control (endpoint: mean survival time, dose: 100.0 mg/kg/injection, schedule: Q01DX001 (ip), vehicle: Klucel (hydroxypropylcellulose) (HPC)); 103 % of control (endpoint: mean survival time, dose: 200.0 mg/kg/injection, schedule: Q01DX001 (ip), vehicle: Klucel (hydroxypropylcellulose) (HPC)); 88 % of control (endpoint: mean survival time, dose: 400.0 mg/kg/injection, schedule: Q01DX001 (ip), vehicle: Klucel (hydroxypropylcellulose) (HPC)).

Consider `CCCCCCCCP(=O)(N1CC1C)N1CC1C` (configuration not stated), for which the T/C runs as follows: under setting [1], 98 % of control; under setting [2], 94 % of control; under setting [3], 96 % of control; (endpoint: mean survival time, dose: 50.0 mg/kg/injection, schedule: Q01DX009 (ip), vehicle: saline) 102 % of control.

`CCOC(=O)C[N+](CC)(CC)CC`: the T/C runs as follows: under setting [9], 96 % of control; under setting [10], 96 % of control; under setting [11], 93 % of control.

`Nc1c(-c2ncc[nH]2)ncn1CC(O)C(O)C(O)CO` (configuration not stated): the T/C was 98 % of control (endpoint: mean survival time, dose: 12.5 mg/kg/injection, schedule: Q01DX005 (ip), vehicle: saline with Tween-80); 101 % of control (endpoint: mean survival time, dose: 25.0 mg/kg/injection, schedule: Q01DX005 (ip), vehicle: saline with Tween-80); 103 % of control (endpoint: mean survival time, dose: 50.0 mg/kg/injection, schedule: Q01DX005 (ip), vehicle: saline with Tween-80); 92 % of control (endpoint: mean survival time, dose: 100.0 mg/kg/injection, schedule: Q01DX005 (ip), vehicle: saline with Tween-80); 98 % of control (endpoint: mean survival time, dose: 200.0 mg/kg/injection, schedule: Q01DX005 (ip), vehicle: saline with Tween-80).

As for `c1ccc(CCNCc2ccccn2)nc1`, the T/C is, setting by setting: (endpoint: mean survival time, dose: 25.0 mg/kg/injection, schedule: Q04DX002 (ip), vehicle: saline) 96 % of control; (endpoint: mean survival time, dose: 50.0 mg/kg/injection, schedule: Q04DX002 (ip), vehicle: saline) 101 % of control; (endpoint: mean survival time, dose: 100.0 mg/kg/injection, schedule: Q01DX001 (ip), vehicle: saline) 94 % of control; (endpoint: mean survival time, dose: 100.0 mg/kg/injection, schedule: Q04DX002 (ip), vehicle: saline) 96 % of control.

`N#Cc1nc2c(n(O)c1=N)CCC/C2=N\O`: the T/C was 98 % of control under setting [9], 98 % of control under setting [10] and 91 % of control under setting [11].

With `CC(C)C(=NO)C(C)C`, the T/C runs as follows: under setting [6], 98 % of control; under setting [4], 101 % of control; under setting [7], 93 % of control; under setting [5], 93 % of control; under setting [8], 91 % of control.

As for `COc1cc(CNC(=O)CCCC2CCC2)ccc1O`, the T/C is 96 % of control (endpoint: mean survival time, dose: 3.13 mg/kg/injection, schedule: Q01DX009 (ip), vehicle: saline with Tween-80); 94 % of control and 97 % of control (endpoint: mean survival time, dose: 6.25 mg/kg/injection, schedule: Q01DX009 (ip), vehicle: saline with Tween-80); 96 % of control (endpoint: mean survival time, dose: 6.25 mg/kg/injection, schedule: Q04DX003 (ip), vehicle: saline with Tween-80); 86 % of control and 97 % of control (endpoint: mean survival time, dose: 12.5 mg/kg/injection, schedule: Q01DX009 (ip), vehicle: saline with Tween-80); 101 % of control (endpoint: mean survival time, dose: 12.5 mg/kg/injection, schedule: Q04DX003 (ip), vehicle: saline with Tween-80); 100 % of control (endpoint: mean survival time, dose: 25.0 mg/kg/injection, schedule: Q01DX009 (ip), vehicle: saline with Tween-80). Moreover, the T/C (endpoint: mean survival time, dose: 25.0 mg/kg/injection, schedule: Q04DX003 (ip), vehicle: saline with Tween-80) is 95 % of control.

For the compound `CCCCOc1ccc(C=Nc2ccc(CC)cc2)cc1`, the T/C under setting [4] is 101 % of control, the T/C under setting [5] was 97 % of control and the T/C under setting [8] is 103 % of control.

`CN(C)CCNc1ccc(CO)c2sc3ccc(O)cc3c(=O)c12`: the T/C (endpoint: median survival time, dose: 25.0 mg/kg/injection, schedule: Q01DX005 (ip), vehicle: saline with Tween-80) was 107 % of control; the T/C (endpoint: median survival time, dose: 72.0 mg/kg/injection, schedule: Q01DX005 (ip), vehicle: saline with Tween-80) was 155 % of control; the T/C (endpoint: median survival time, dose: 100.0 mg/kg/injection, schedule: Q01DX005 (ip), vehicle: saline with Tween-80) is 212 % of control; the T/C (endpoint: median survival time, dose: 120.0 mg/kg/injection, schedule: Q01DX005 (ip), vehicle: saline with Tween-80) was 183 % of control; the T/C (endpoint: median survival time, dose: 333.33 mg/kg/injection, schedule: Q01DX005 (ip), vehicle: saline with Tween-80) was 112 % of control; the T/C (endpoint: median survival time, dose: 400.0 mg/kg/injection, schedule: Q01DX005 (ip), vehicle: saline with Tween-80) was 113 % of control and 97 % of control. Further, the T/C (endpoint: median survival time, dose: 555.55 mg/kg/injection, schedule: Q01DX005 (ip), vehicle: saline with Tween-80) is 111 % of control.

In the case of `CC1CCCC2C(=O)OC(=O)C12` (configuration not stated), the T/C is 92 % of control under setting [9] and 98 % of control under setting [10].

Regarding `CN(C)S(=O)(=O)c1ccccc1C1(O)c2ccccc2-c2ccccc21`, the T/C (endpoint: mean survival time, dose: 50.0 mg/kg/injection, schedule: Q01DX009 (ip), vehicle: saline with Tween-80) is 87 % of control; the T/C under setting [6] was 87 % of control; the T/C under setting [4] was 93 % of control; the T/C under setting [5] is 86 % of control.

On to `COc1cc(C(=O)C(=O)c2cc(OC)c(OC)c(OC)c2)cc(OC)c1OC`, for which the T/C is, setting by setting: (endpoint: mean survival time, dose: 100.0 mg/kg/injection, schedule: Q01DX009 (ip), vehicle: Klucel (hydroxypropylcellulose) (HPC)) 101 % of control; (endpoint: mean survival time, dose: 200.0 mg/kg/injection, schedule: Q01DX009 (ip), vehicle: Klucel (hydroxypropylcellulose) (HPC)) 106 % of control; (endpoint: mean survival time, dose: 400.0 mg/kg/injection, schedule: Q01DX009 (ip), vehicle: Klucel (hydroxypropylcellulose) (HPC)) 113 % of control.
